Source: ChEMBL document CHEMBL4665626, “Excellent antitumor and antimetastatic activities based on novel coumarin/pyrazole oxime hybrids” (Eur J Med Chem, 2019)
Counter-ions that a name gives are not always drawn. Activity calls are given as the source filed them. No cut-off for these calls is given here.

How the values were obtained:
[1] = test system: U-87 MG; test: Antiproliferative activity against human U87 cells assessed as reduction in cell viability incubated for 72 hrs by MTT assay; assay type: functional, cell-based, U-87MG ATCC
[2] = test system: SMMC-7721; test: Antiproliferative activity against human SMMC-7721 cells assessed as reduction in cell viability incubated for 72 hrs by MTT assay; assay type: functional, cell-based; conditions: SMMC-7721, 72 h
[3] = Antiproliferative activity against human NCI-H1299 cells assessed as reduction in cell viability incubated for 72 hrs by MTT assay; assay type: functional, cell-based; conditions: NCI-H1299, 72 h
[4] = test system: HepG2; test: Antiproliferative activity against human HepG2 cells assessed as reduction in cell viability incubated for 72 hrs by MTT assay; assay type: functional, cell-based; conditions: HepG2, 72 h
[5] = test system: SMMC-7721; test: Inhibition of epithelial-mesenchymal transition in human SMMC-7721 cells assessed as increase in TGF-beta1 reduced E-cadherin expression at 0.5 uM incubated for 48 hrs by Western blot analysis; assay type: functional, cell-based
[6] = test system: SMMC-7721; test: Inhibition of epithelial-mesenchymal transition in human SMMC-7721 cells assessed as increase in TGF-beta1 reduced E-cadherin expression at 0.5 uM incubated for 48 hrs by Immunofluorescence staining based laser-scanning confocal microscope; assay type: functional, cell-based
[7] = test system: SMMC-7721; test: Inhibition of TGF-beta1-induced cell migration in human SMMC-7721 cells at 0.5 uM incubated for 24 hrs by wound healing assay relative to control; assay type: functional
[8] = test system: SMMC-7721; test: Inhibition of TGF-beta1-induced cell invasion in human SMMC-7721 cells at 0.5 uM incubated for 2 days by crystal violet staining based matrigel transwell migration assay; assay type: functional; conditions: time 2.0 day
[9] = test system: SMMC-7721; test: Inhibition of epithelial-mesenchymal transition in human SMMC-7721 cells assessed as decrease in TGF-beta1-induced vimentin expression at 0.5 uM incubated for 48 hrs by immunofluorescence staining based laser-scanning confocal microscope; assay type: functional, cell-based
[10] = test system: SMMC-7721; test: Inhibition of epithelial-mesenchymal transition in human SMMC-7721 cells assessed as decrease in TGF-beta1-induced MMP9 expression at 0.5 uM incubated for 48 hrs by immunofluorescence staining based laser-scanning confocal microscope; assay type: functional, cell-based
[11] = test system: SMMC-7721; test: Inhibition of epithelial-mesenchymal transition in human SMMC-7721 cells assessed as decrease in TGF-beta1-induced MMP9 expression at 0.5 uM incubated for 48 hrs by Western blot analysis; assay type: functional, cell-based
[12] = test system: SMMC-7721; test: Inhibition of epithelial-mesenchymal transition in human SMMC-7721 cells assessed as decrease in TGF-beta1-induced vimentin expression at 0.5 uM incubated for 48 hrs by Western blot analysis; assay type: functional, cell-based

With `Cc1nn(C)c(Oc2cccc(C(F)(F)F)c2)c1/C=N\OCCCCCCOc1cc2oc(=O)cc(C)c2cc1Cl` as the molecule, how does the IC50 [1] read?
Its IC50 is 23.4 µM.

And the IC50 [2]?
The IC50 was 24.8 µM.

And the IC50 [3]?
The IC50 was > 25 µM.

And the IC50 [4]?
The IC50 was > 25 µM.

For `Cc1nn(C)c(Oc2ccc(OC(F)(F)F)cc2)c1/C=N\OCCCCCCOc1cc2oc(=O)cc(C)c2cc1Cl`, which IC50 [1] is on record?
The IC50 was 9.62 µM.

And the IC50 [2]?
The IC50 was 6.35 µM.

What about the IC50 [3] of the same molecule?
Its IC50 is 11.9 µM.

And the IC50 [4]?
Its IC50 is 8.16 µM.

Which results are given for `COc1cccc2c1C(=O)c1c(O)c3c(c(O)c1C2=O)C[C@@](O)(C(=O)CO)C[C@@H]3O[C@H]1C[C@H](N)[C@H](O)[C@H](C)O1` [DOXORUBICIN HYDROCHLORIDE]?
IC50 [1]: 4.28 µM; inhibition [5]: Active; inhibition [6]: Active; inhibition [7]: Active; inhibition [8]: Active; inhibition [9]: Active; IC50 [4]: 2.32 µM; inhibition [10]: Active; inhibition [11]: Active; inhibition [12]: Active

With `O=c1[nH]cc(F)c(=O)[nH]1` [FLUOROURACIL] as the molecule, how does the IC50 [1] read?
The IC50 was 45.3 µM.

And the IC50 [3]?
The IC50 was 41.8 µM.

And the IC50 [4]?
The IC50 was 31.7 µM.
